Test results reported in patent publication US8629157B2, “Pyrrolidine compounds which modulate the CB2 receptor” (Boehringer Ingelheim International GmbH, priority 2009, dated 2014).

These molecules were tested against human CB2R (Homo sapiens, UniProt P34972) (assay: CB2R mediated modulation of cAMP synthesis). Settings: not given.
Chain of human CB2R (P34972 whole entry): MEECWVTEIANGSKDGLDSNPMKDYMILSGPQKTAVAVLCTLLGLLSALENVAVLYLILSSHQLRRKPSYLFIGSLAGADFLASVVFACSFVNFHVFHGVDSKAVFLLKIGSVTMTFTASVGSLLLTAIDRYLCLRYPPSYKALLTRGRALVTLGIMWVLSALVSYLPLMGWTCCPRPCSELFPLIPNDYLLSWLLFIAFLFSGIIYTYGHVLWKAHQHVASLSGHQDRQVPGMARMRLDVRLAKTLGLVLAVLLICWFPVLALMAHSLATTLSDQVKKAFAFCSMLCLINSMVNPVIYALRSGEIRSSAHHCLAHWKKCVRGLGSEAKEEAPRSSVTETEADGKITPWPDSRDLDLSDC
Assay type: cell-based
Description: B. CB2R Mediated Modulation of cAMP Synthesis:
Compounds of the invention were evaluated for their CB2 agonist or inverse agonistic activity in accordance with the following experimental method.
CHO cells expressing human CB2R (Euroscreen) were plated at a density of 5000 cells per well in 384 well plates and incubated overnight at 37° C. After removing the media, the cells were treated with test compounds diluted in stimulation buffer containing 1 mM IBMX, 0.25% BSA and 10 uM Forskolin. The assay was incubated for 30 minutes at 37° C. Cells were lysed and the cAMP concentration was measured using DiscoverX-XS cAMP kit, following the manufacturer's protocol. In this setting, agonists will decrease forskolin induced production of cAMP while inverse agonists will further increase forskolin induced production of cAMP. EC50 of agonists were calculated as follows. The maximal amount of cAMP produced by forskolin compared to the level of cAMP inhibited by 1 uM CP55940 is defined as 100%. […] Data was analyzed using a four-parameter logistic model. (Model 205 of XLfit 4.0).
With CC(C)(C)c1cc(NC(=O)[C@@H]2CCCN2C(=O)N2CCS(=O)(=O)CC2)on1 the EC50 was 97.1 nM. CCC(C)c1ccc(NC(=O)[C@@H]2CCC(=O)N2c2ncc(C(F)(F)F)cc2Cl)cc1 (stereo partly shown) was tested, and the EC50 was 28.1 nM. Work on O=C(NCCN1CCN(c2nccc(C(F)(F)F)n2)CC1)[C@@H]1CCCN1c1ccc(Cl)cc1 yielded an EC50 of 381 nM. For CC(C)(C)c1nnc(NC(=O)[C@@H]2CCCN2C2CCCC2(C)C)s1 (stereo partly shown) [1-(2,2-Dimethyl-cyclopentyl)-pyrrolidine-2-carboxylic acid (5-tert-butyl-1,3,4-thiadiazol-2-yl)-amide], the EC50 was 445 nM. Work on CC1(C)CC(CN2CCCC2C(=O)Nc2cc(C(C)(C)C)no2)CCO1 (stereo not shown) [1-(2,2-Dimethyl-tetrahydro-pyran-4-ylmethyl)-pyrrolidine-2-carboxylic acid (3-tert-butyl-isoxazol-5-yl)-amide] yielded an EC50 of 7.1 nM. Molecule CC1CCCCC1N1CCC[C@H]1C(=O)Nc1nnc(C(C)(C)C)s1 (stereo partly shown) [1-(2-Methyl-cyclohexyl)-pyrrolidine-2-carboxylic acid (5-tert-butyl-1,3,4-thiadiazol-2-yl)-amide] has an EC50 of 255 nM. For Cn1nc(C(C)(C)C)cc1NC(=O)C1CCCN1c1ncc(C(F)(F)F)cc1Cl (stereo not shown) [1-(3-Chloro-5-trifluoromethyl-pyridin-2-yl)-pyrrolidine-2-carboxylic acid (5-tert-butyl-2-methyl-2H-pyrazol-3-yl)-amide], the EC50 was 112 nM. Molecule CC(C)(C)c1cc(NC(=O)C2CCCN2c2ncc(C(F)(F)F)cc2Cl)no1 (stereo not shown) [1-(3-Chloro-5-trifluoromethyl-pyridin-2-yl)-pyrrolidine-2-carboxylic acid (5-tert-butyl-isoxazol-3-yl)-amide] has an EC50 of 0.0402 nM. Molecule CC(C)(C)c1cc(NC(=O)C2CCCN2c2ccc(Cl)cn2)no1 (stereo not shown) [1-(5-Chloro-pyridin-2-yl)-pyrrolidine-2-carboxylic acid (5-tert-butyl-isoxazol-3-yl)-amide] has an EC50 of 0.364 nM. With O=C(Nc1ccc(C(F)(F)F)cn1)C1CCCN1c1ccc(C(F)(F)F)cn1 (stereo not shown) [1-(5-Trifluoromethyl-pyridin-2-yl)-pyrrolidine-2-carboxylic acid (5-trifluoromethyl-pyridin-2-yl)-amide] the EC50 was 328 nM. Molecule CC(C)(C)c1cc(NC(=O)[C@@H]2CCCN2CC2CCCCO2)on1 (stereo partly shown) [1-(Tetrahydro-pyran-2-ylmethyl)-pyrrolidine-2-carboxylic acid (3-tert-butyl-isoxazol-5-yl)-amide] has an EC50 of 0.172 nM. For CC(C)N1CCCC1C(=O)Nc1cc(C(C)(C)C)on1 (stereo not shown) [1-isopropyl-pyrrolidine-2-carboxylic acid (5-tert-butyl-isoxazol-3-yl)-amide], the EC50 was 30.3 nM. In the case of CCC(C)N1CCC[C@H]1C(=O)Nc1nnc(C(C)(C)C)s1 (stereo partly shown) [1-sec-Butyl-pyrrolidine-2-carboxylic acid (5-tert-butyl-1,3,4-thiadiazol-2-yl)-amide], the EC50 is reported as 390 nM. With CC(C)(C)c1cc(NC(=O)[C@@H]2C[C@@H](O)CN2Cc2ccc(F)c(F)c2)on1 [(2S,4R)-1-(3,4-Difluoro-benzyl)-4-hydroxy-pyrrolidine-2-carboxylic acid (3-tert-butyl-isoxazol-5-yl)-amide] the EC50 was 6.88 nM. CC(C)(C)c1cc(NC(=O)[C@@H]2C[C@@H](O)CN2Cc2ccc(F)c(F)c2)no1 [(2S,4R)-1-(3,4-Difluoro-benzyl)-4-hydroxy-pyrrolidine-2-carboxylic acid (5-tert-butyl-isoxazol-3-yl)-amide] gave an EC50 of 12.3 nM. CC(C)(C)c1cc(NC(=O)[C@@H]2C[C@@H](O)CN2c2ncc(C(F)(F)F)cc2Cl)on1 [(2S,4R)-1-(3-Chloro-5-trifluoromethyl-pyridin-2-yl)-4-hydroxy-pyrrolidine-2-carboxylic acid (3-tert-butyl-isoxazol-5-yl)-amide] showed an EC50 of 3.25 nM. For CC(C)(C)c1cc(NC(=O)[C@@H]2C[C@@H](O)CN2c2ncc(C(F)(F)F)cc2Cl)no1 [(2S,4R)-1-(3-Chloro-5-trifluoromethyl-pyridin-2-yl)-4-hydroxy-pyrrolidine-2-carboxylic acid (5-tert-butyl-isoxazol-3-yl)-amide], the EC50 was 5.04 nM. Work on CC(C)(C)c1cc(NC(=O)[C@@H]2C[C@@H](O)CN2c2ccc(Cl)cc2)no1 [(2S,4R)-1-(4-Chloro-phenyl)-4-hydroxy-pyrrolidine-2-carboxylic acid (5-tert-butyl-isoxazol-3-yl)-amide] yielded an EC50 of 14.4 nM. In the case of CC(C)(CO)c1cc(NC(=O)[C@@H]2C[C@@H](O)CN2c2ccc(Cl)cc2)on1 [(2S,4R)-1-(4-Chloro-phenyl)-4-hydroxy-pyrrolidine-2-carboxylic acid [3-(2-hydroxy-1,1-dimethyl-ethyl)-isoxazol-5-yl]-amide], the EC50 is reported as 196 nM. Molecule COCC(C)(C)c1cc(NC(=O)[C@@H]2C[C@@H](O)CN2c2ccc(Cl)cc2)on1 [(2S,4R)-1-(4-Chloro-phenyl)-4-hydroxy-pyrrolidine-2-carboxylic acid [3-(2-methoxy-1,1-dimethyl-ethyl)-isoxazol-5-yl]-amide] has an EC50 of 87 nM. COCC(C)(C)c1cc(NC(=O)[C@@H]2C[C@@H](O)CN2c2ccc(Cl)cc2)no1 [(2S,4R)-1-(4-Chloro-phenyl)-4-hydroxy-pyrrolidine-2-carboxylic acid [5-(2-methoxy-1,1-dimethyl-ethyl)-isoxazol-3-yl]-amide] showed an EC50 of 80.9 nM. CC(C)(C)c1cc(NC(=O)[C@@H]2C[C@@H](O)CN2C2CCCCC2)no1 [(2S,4R)-1-Cyclohexyl-4-hydroxy-pyrrolidine-2-carboxylic acid (5-tert-butyl-isoxazol-3-yl)-amide] showed an EC50 of 4.69 nM. CC(C)(C)c1cc(NC(=O)[C@@H]2C[C@@H](O)CN2C2CCCC2)on1 [(2S,4R)-1-Cyclopentyl-4-hydroxy-pyrrolidine-2-carboxylic acid (3-tert-butyl-isoxazol-5-yl)-amide] gave an EC50 of 61.9 nM. With CC(C)(C)c1cc(NC(=O)[C@@H]2C[C@@H](O)CN2C2CCCC2)no1 [(2S,4R)-1-Cyclopentyl-4-hydroxy-pyrrolidine-2-carboxylic acid (5-tert-butyl-isoxazol-3-yl)-amide] the EC50 was 23.2 nM. Work on O=C(Nc1nc(-c2ccccc2)ns1)[C@@H]1C[C@@H](O)CN1c1ccc(C(F)(F)F)cn1 [(2S,4R)-4-Hydroxy-1-(5-trifluoromethyl-pyridin-2-yl)-pyrrolidine-2-carboxylic acid (3-phenyl-1,2,4-thiadiazol-5-yl)-amide] yielded an EC50 of 357 nM. CC(C)(C)c1cc(NC(=O)[C@@H]2C[C@@H](O)CN2c2ccc(C(F)(F)F)cn2)on1 [(2S,4R)-4-Hydroxy-1-(5-trifluoromethyl-pyridin-2-yl)-pyrrolidine-2-carboxylic acid (3-tert-butyl-isoxazol-5-yl)-amide] gave an EC50 of 0.433 nM. CC(C)(C)c1cc(NC(=O)[C@@H]2C[C@@H](O)CN2c2ccc(C(F)(F)F)cn2)no1 [(2S,4R)-4-Hydroxy-1-(5-trifluoromethyl-pyridin-2-yl)-pyrrolidine-2-carboxylic acid (5-tert-butyl-isoxazol-3-yl)-amide] showed an EC50 of 161 nM. For CC(C)(C)c1cc(NC(=O)[C@@H]2C[C@@H](O)CN2C2CCOCC2)on1 [(2S,4R)-4-Hydroxy-1-(tetrahydro-pyran-4-yl)-pyrrolidine-2-carboxylic acid (3-tert-butyl-isoxazol-5-yl)-amide], the EC50 was 328 nM. Work on CCc1sc(NC(=O)[C@@H]2C[C@@H](O)CN2C2CCOCC2)nc1-c1ccccc1 [(2S,4R)-4-Hydroxy-1-(tetrahydro-pyran-4-yl)-pyrrolidine-2-carboxylic acid (5-ethyl-4-phenyl-thiazol-2-yl)-amide] yielded an EC50 of 58.7 nM. CC(C)(C)c1cc(NC(=O)[C@@H]2C[C@@H](O)CN2C2CCOCC2)no1 [(2S,4R)-4-Hydroxy-1-(tetrahydro-pyran-4-yl)-pyrrolidine-2-carboxylic acid (5-tert-butyl-isoxazol-3-yl)-amide] was tested, and the EC50 was 363 nM. Work on CC1CC(NC(=O)[C@@H]2C[C@@H](O)CN2CC2CCOCC2)CC(C)(C)C1 (stereo partly drawn) [(2S,4R)-4-Hydroxy-1-(tetrahydro-pyran-4-ylmethyl)-pyrrolidine-2-carboxylic acid (3,3,5-trimethyl-cyclohexyl)-amide] yielded an EC50 of 219 nM. O=C(Nc1nc(-c2ccccc2)ns1)[C@@H]1C[C@@H](O)CN1CC1CCOCC1 [(2S,4R)-4-Hydroxy-1-(tetrahydro-pyran-4-ylmethyl)-pyrrolidine-2-carboxylic acid (3-phenyl-1,2,4-thiadiazol-5-yl)-amide] gave an EC50 of 303 nM. O=C(Nc1nc(C2CCCCC2)cs1)[C@@H]1C[C@@H](O)CN1CC1CCOCC1 [(2S,4R)-4-Hydroxy-1-(tetrahydro-pyran-4-ylmethyl)-pyrrolidine-2-carboxylic acid (4-cyclohexyl-thiazol-2-yl)-amide] showed an EC50 of 150 nM.

Same assay, conditions: CHO cells expressing human CB2R; inhibition of forskolin-stimulated cAMP synthesis; mean; read-out: CB2 CAMP @ EC50 nM (mean)
For O=C(Nc1ccc(C(F)(F)F)cn1)C1CCCN1c1ncc(C(F)(F)F)cc1Cl (stereo not shown) [1-(3-Chloro-5-trifluoromethyl-pyridin-2-yl)-pyrrolidine-2-carboxylic acid (5-trifluoromethyl-pyridin-2-yl)-amide], the EC50 was 23.2 nM. For CC(C)(C)OC(=O)CCN1CCC[C@H]1C(=O)Nc1cc(C(C)(C)C)no1 [3-[(S)-2-(3-tert-Butyl-isoxazol-5-ylcarbamoyl)-pyrrolidin-l-yl]-propionic acid tert-butyl ester], the EC50 was 20 nM. In the case of O=C(NCC1CCCCC1)[C@@H]1C[C@@H](O)CN1C(=O)C1CCC(F)(F)CC1 [(2S,4R)-1-(4,4-Difluoro-cyclohexanecarbonyl)-4-hydroxy-pyrrolidine-2-carboxylic acid cyclohexylmethyl-amide], the EC50 is reported as 432 nM. Work on CCCc1cc(NC(=O)[C@@H]2C[C@@H](O)CN2CC2CCOCC2)on1 [(2S,4R)-4-Hydroxy-1-(tetrahydro-pyran-4-ylmethyl)-pyrrolidine-2-carboxylic acid (3-propyl-isoxazol-5-yl)-amide] yielded an EC50 of 248 nM.
